Measurements taken from paper PMC7961786, “Magic Peptide: Unique Properties of the LRR11 Peptide in the Activation of Leukotriene Synthesis in Human Neutrophils” (International Journal of Molecular Sciences, 2021).
Entries after “also recorded” stand apart in the source; their conditions may differ.

Key:
5′-biotinylated C-CpG = assay: TSM acoustic biosensor, peptide binding to immobilized C-CpG
Excerpt: (§1) To characterize the interaction of the studied synthetic ODNs with the LRR11 peptide, we applied the thickness shear mode (TSM) acoustic biosensor method, which is based on the investigation of ultrasonic waves in piezoelectric materials such as AT-cut quartz. This approach involved immobilizing a 5′-biotinylated ODN on the surface of TSM transducer covered by NeutrAvidin and then adding the LRR11 peptide. An unrelated peptide (URP) with a random primary structure ([…]) was used as a negative control. The measurement procedure was divided into several steps, in which each immobilization stage was followed by washing with an appropriate buffer solution; when peptide solutions at different concentrations (from 1 to 100 nM) were added to the surface-modified TSM transducer, a wash with Hanks buffer was used before increasing the peptide concentration.
(§2) Based on Langmuir isotherm Equation (1), (1) Δfcc=Δfsmaxc/KD+c where Δfs(c) is the frequency change at a certain peptide concentration under equilibrium conditions, (Δfs)max is the maximum frequency change, c is the peptide concentration, and KD is the equilibrium constant of dissociation, we estimated the (Δfs)max and KD values for binding of the LRR11 peptide to C-CpG and B-CpG (Table 3).
Using Sauerbrey’s Equation (2), (2) Δf=−2f02Δm/Aμqρq where f0 is the fundamental resonance frequency (in our case 8 MHz), Δm is the change in mass (in grams) of the adsorbed layer on the crystal surface, A is the effective crystal area (in our case 0.2 cm^2), μq = 2.947 × 10^11 g × cm^−1s^−2 is the shear modulus of elasticity, and ρq = 2.648 g × cm^−3 is the crystal density, surface concentrations of NeutrAvidin, ODN and LRR11 peptide were estimated based on changes of resonance frequency (Figure 4). According to Equation (2), the surface density of molecules, σ (in molecules/cm^2), can be calculated as σ = ΔmNA/(A × Mw), where NA is Avogadro’s number (=6.023 × 10^23 mol^−1), and Mw represents the molecular weight of the corresponding compound (NeutrAvidin: 65 kDa, 5′-biotinylated C-CpG: 7115.4 Da, and LRR11: 3421 Da). Based on this approach, we obtained the following surface concentration values: 1.94 × 10^13 cm^−2 for NeutrAvidin, 3.37 × 10^13 cm^−2 for C-CpG and 2.4 × 10^13 cm^−2 for LRR11. The NeutrAvidin has four binding sites, two of which are available for biotinylated ODN binding. This is due to the fact that the other two sites are inaccessible due to NeutrAvidin chemisorption on the TSM surface. Thus, the number of available binding sites for the ODN is 3.88 × 10^13 cm^−2. […] Therefore, the surface of the TSM transducer is practically completely saturated by C-CpG. Estimation of the surface concentration of LRR11 evidences that at 50 nM concentration of this peptide, it occupies almost 70.6% of the ODN molecules. […]

5′-biotinylated B-CpG = assay: TSM acoustic biosensor, peptide binding to immobilized B-CpG
Excerpt: as §1, §2
Eight MHz AT-cut piezoelectric quartz crystal transducer was obtained from CH Instruments, Austin, TX, USA. The transducer was covered on both sides with thin layers of gold that served as electrodes (working area 0.2 cm^2). Prior ODNs immobilization, the crystal was carefully cleaned with basic Piranha solution (29% NH3, 30% H2O and H2O2 with volumetric 1:5:1 ratio, respectively) for 25 min. After the thorough cleaning, the crystal was positioned between two silicon O-rings in a flow-through cell. The analyte was injected into the cell using a Genie Plus syringe pump (Kent Scientific, Torrington, CT, USA) at a flow rate of 50 μL/min. Each solution was applied until the resonance frequency stabilized. The surface of the transducer was first washed with deionized water, and then 125 μg/mL NeutrAvidin (WWR International GmbH, Vienna, Austria) solution in water was applied. Approximately 15 min were required to stabilize the signal at a constant NeutrAvidin flow rate. This was followed by washing with water to rinse out all non-chemisorbed NeutrAvidin molecules. Immobilization of ODN on the gold surface of the crystals is accomplished using avidin–biotin interactions. A 1 μM 5′-biotinylated ODN solution was injected over the neutravidin-modified surface and subsequently the crystal was washed again with water. The system was then equilibrated using Hanks buffer solution. This buffer was suitable for studying LRR11–ODN binding. Then LRR11 was used at concentrations of 1, 5, 10, 50 and 100 nM […] in Hanks buffer. After each addition of LRR11, the sensor surface was washed with Hanks buffer and LRR11 with the higher concentration was added. All binding experiments were carried out at room temperature. Buffer and sample solutions were introduced in a flow-through format. A network analyzer 8712ES (Agilent Technologies, Santa Clara, CA, USA) was used to measure the impedance properties of the sensor and determine fS and Rm.

[1] = system: 5′-biotinylated G-rich ODN; assay: TSM acoustic biosensor, peptide binding to immobilized G-rich ODN; settings: LRR11 1 to 100 nM, Hanks buffer
Excerpt: as §1
(§3) Eight MHz AT-cut piezoelectric quartz crystal transducer was obtained from CH Instruments, Austin, TX, USA. The transducer was covered on both sides with thin layers of gold that served as electrodes (working area 0.2 cm^2). Prior ODNs immobilization, the crystal was carefully cleaned with basic Piranha solution (29% NH3, 30% H2O and H2O2 with volumetric 1:5:1 ratio, respectively) for 25 min. After the thorough cleaning, the crystal was positioned between two silicon O-rings in a flow-through cell. […]

NeutrAvidin = assay: TSM acoustic biosensor, unspecific binding to NeutrAvidin in the absence of ODNs
Excerpt: as §1, §3

Row | Substance | change of ∆fs at low LRR11 concentrations (5′-biotinylated C-CpG; 1, 5, 10 nM LRR11, C-CpG) | change of ∆fs at low LRR11 concentrations (5′-biotinylated B-CpG; 1, 5, 10 nM LRR11, B-CpG) | Kd (5′-biotinylated B-CpG; LRR11-B-CpG complex, Langmuir fit, Hanks buffer, room temperature, LRR11 1-100 nM, three independent experiments) [nM] | interaction with G-rich ODN [1] | unspecific binding to NeutrAvidin (NeutrAvidin) | KA (5′-biotinylated C-CpG; LRR11-C-CpG complex, KA = 1/KD) [nM⁻¹] | −(Δfs)max (5′-biotinylated C-CpG; LRR11 to immobilized C-CpG, Langmuir fit, Hanks buffer, room temperature, LRR11 1-100 nM, three independent experiments) [Hz]
1 | QLRKLNLSFNYQKRVSFAHLSLAPSFGSLV [LRR11, 30 amino acid peptide from leucine-rich repeat of TLR9] | not significant or small changes of ∆fs | not significant or small changes of ∆fs | 55.1 ± 17.4 | does not interact with the LRR11 peptide at any concentration; also recorded: no significant change of resonant frequency was observed | no unspecific biding | – | –
2 | 5′-tcgtcgttttcggcgcgcgccg-3′ (DNA TCGTCGTTTTCGGCGCGCGCCG; chemistry not fully specified) [C-CpG] | – | – | – | – | – | 0.017 ± 0.007 | 33.9 ± 6.4
